According to patent US6444617B1, “Fused-heterocycle dicarboxylic acid diamide derivatives or salts thereof, herbicide and usage thereof” (Nihon Nohyaku Co., Ltd., priority 1998, dated 2002):

Assays:
Assay type in all cases: in vivo
[1] = test system: barnyard grass (Echinochloa crus-galli Beauv.); experiment: Test Example 1: herbicidal effect on paddy field weeds before emergence; conditions: Dosage 5 kg/ha
In short: (§1)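 Grading reflects percent control relative to untreated plots, evaluated three weeks post-application. Treatment was a soil application of compound solution, predetermined dose, made to paddy-state pots before weed seeds germinated.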

[2] = test system: bulrush (Scirpus juncoides Roxb.); experiment: as above; conditions: Dosage 5 kg/ha
In short: as §1

[3] = test system: barnyard grass (Echinochloa crus-galli Beauv.); experiment: Test Example 2: herbicidal effect on paddy field weeds after emergence; conditions: Dosage 5 kg/ha; one-leaved stage; 21 days after treatment
In short: (§2)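 Weeds in flooded paddy-soil pots were grown to the one-leaved stage, then the soil was treated with the compound solution at a set dosage.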

[4] = test system: bulrush (Scirpus juncoides Roxb.); experiment: as above; conditions: Dosage 5 kg/ha; one-leaved stage; 21 days after treatment
In short: as §2

[5] = test system: monochoria (Monochoria vaginalis Presl); experiment: as above; conditions: Dosage 5 kg/ha; one-leaved stage; 21 days after treatment
In short: as §2

[6] = test system: barnyard grass (Echinochloa crus-galli Beauv.), Ec; experiment: Test Example 3: herbicidal effect on upland weeds before emergence; conditions: dosage 5 kg/ha
In short: (§3)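 Pre-emergence spray of liquid prep, compound at set concentration; read at 14 d post-treatment; weed-kill rate calculated, effect graded.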

[7] = test system: bird's eye speedwell (Veronica persica Poir.), Vp; experiment: as above; conditions: dosage 5 kg/ha
In short: as §3

[8] = test system: cleavers (Galium aparine L.), Ga; experiment: as above; conditions: dosage 5 kg/ha
In short: as §3

[9] = test system: cocklebur (Xanthium strumarium L.), Xs; experiment: as above; conditions: dosage 5 kg/ha
In short: as §3

[10] = test system: forxtail grass (Alopecurus aequalis var. amurensis Ohwi), Am; experiment: as above; conditions: foxtail grass, dosage 5 kg/ha
In short: as §3

[11] = test system: velvetleaf (Abutilon theophtasti L.), At; experiment: as above; conditions: dosage 5 kg/ha
In short: as §3

[12] = test system: soybean plant (So); experiment: Test Example 3: phytotoxicity to upland crop plants, treatment before emergence; conditions: dosage 5 kg/ha
In short: (§4)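 Phytotoxicity scores for soybean and wheat were assigned by a set criterion 14 days after a pre-emergence spray of a liquid preparation containing the test compound at a prescribed concentration.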

[13] = test system: wheat (Wh); experiment: as above; conditions: dosage 5 kg/ha
In short: as §4

[14] = test system: barnyard grass (Echinochloa crus-galli Beauv.), Ec; experiment: Test Example 4: herbicidal effect on upland weeds after emergence; conditions: dosage 5 kg/ha; sprayed after emergence; judged 14 days after treatment
In short: (§5)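 Seeds sown in soil and covered. Plants raised to specified leaf stages. Agent with test compound at a prescribed concentration sprayed. Herbicidal effect and crop damage scored after 14 days as weed-killing rate.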

[15] = test system: bird's eye speedwell (Veronica persica Poir.), Vp; experiment: as above; conditions: dosage 5 kg/ha; sprayed after emergence; judged 14 days after treatment
In short: as §5

[16] = test system: cleavers (Galium aparine L.), Ga; experiment: as above; conditions: dosage 5 kg/ha; sprayed after emergence; judged 14 days after treatment
In short: as §5

[17] = test system: cocklebur (Xanthium strumarium L.), Xs; experiment: as above; conditions: dosage 5 kg/ha; sprayed after emergence; judged 14 days after treatment
In short: as §5

[18] = test system: forxtail grass (Alopecurus aequalis var. amurensis Ohwi), Am; experiment: as above; conditions: dosage 5 kg/ha; sprayed after emergence; judged 14 days after treatment
In short: as §5

[19] = test system: velvetleaf (Abutilon theophtasti L.), At; experiment: as above; conditions: dosage 5 kg/ha; sprayed after emergence; judged 14 days after treatment
In short: as §5

[20] = test system: soybean plant; experiment: Test Example 4: phytotoxicity to upland crop plants, treatment after emergence; conditions: dosage 5 kg/ha, sprayed after emergence, judged 14 days after treatment
In short: as §5

[21] = test system: wheat; experiment: as above; conditions: dosage 5 kg/ha, sprayed after emergence, judged 14 days after treatment
In short: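 Weeds, soybean and wheat were sown in soil-filled vats, covered with soil and grown to set leaf stages before a post-emergence spray of an agent containing the compound at a prescribed concentration. Weed-killing rate and crop phytotoxicity were assessed 14 days after treatment.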

| SMILES | Pre-emergence treatment Barnyard grass (herbicidal effect) [1] | Pre-emergence treatment Bulrush (herbicidal effect) [2] | Post-emergence treatment Barnyard grass (herbicidal effect) [3] | Post-emergence treatment Bulrush (herbicidal effect) [4] | Post-emergence treatment Monochoria (herbicidal effect) [5] | Herbicidal effect Ec [6] | Herbicidal effect Vp [7] | Herbicidal effect Ga [8] | Herbicidal effect Xs [9] | Herbicidal effect Am [10] | Herbicidal effect At [11] | Phytotoxicity So [12] | Phytotoxicity Wh [13] | Herbicidal effect Ec [14] | Herbicidal effect Vp [15] | Herbicidal effect Ga [16] | Herbicidal effect Xs [17] | Herbicidal effect Am [18] | Herbicidal effect At [19] | Phytotoxicity So [20] | also measured |
| --- | --- | --- | --- | --- | --- | --- | --- | --- | --- | --- | --- | --- | --- | --- | --- | --- | --- | --- | --- | --- | --- |
| CCCNC(=O)c1nc2c(C)nn(C)c2cc1C(=O)Nc1c(CC)ccc(Cl)c1CC [compound 1197] | 5 (Weed-killing rate is 100%.) | 5 (Weed-killing rate is 100%.) | 5 (Weed-killing rate is 100%.) | 5 (Weed-killing rate is 100%.) | 5 (Weed-killing rate is 100%.) | 5 (Weed-killing rate is 100%.) | 5 (Weed-killing rate is 100%.) | 5 (Weed-killing rate is 100%.) | 5 (Weed-killing rate is 100%.) | 5 (Weed-killing rate is 100%.) | 5 (Weed-killing rate is 100%.) | 5 (Crop-killing rate is 100%.) | 5 (Crop-killing rate is 100%.) | 5 (Weed-killing rate is 100%.) | 5 (Weed-killing rate is 100%.) | 5 (Weed-killing rate is 100%.) | 5 (Weed-killing rate is 100%.) | 5 (Weed-killing rate is 100%.) | 5 (Weed-killing rate is 100%.) | 5 (Crop-killing rate is 100%.) | Phytotoxicity Wh [21]: 5 (Crop-killing rate is 100%.) |
| CCCNC(=O)c1nc2ccccc2nc1C(=O)Nc1cccc(Cl)c1C [compound 1318] | 5 (Weed-killing rate is 100%.) | 4 (Weed-killing rate is 90-99%.) | 4 (Weed-killing rate is 90-99%.) | 4 (Weed-killing rate is 90-99%.) | 5 (Weed-killing rate is 100%.) | 5 (Weed-killing rate is 100%.) | 5 (Weed-killing rate is 100%.) | 4 (Weed-killing rate is 90-99%.) | 4 (Weed-killing rate is 90-99%.) | 5 (Weed-killing rate is 100%.) | 5 (Weed-killing rate is 100%.) | 3 (Crop-killing rate is 70-89%.) | 5 (Crop-killing rate is 100%.) | 5 (Weed-killing rate is 100%.) | 5 (Weed-killing rate is 100%.) | 5 (Weed-killing rate is 100%.) | 4 (Weed-killing rate is 90-99%.) | 5 (Weed-killing rate is 100%.) | 5 (Weed-killing rate is 100%.) | 3 (Crop-killing rate is 70-89%.) | Phytotoxicity Wh [21]: 4 (Crop-killing rate is 90-99%.) |
| CCNC(=O)c1nc2ccccc2cc1C(=O)Nc1c(CC)ccc(Cl)c1CC [359-2] | 5 (Weed-killing rate is 100%.) | 5 (Weed-killing rate is 100%.) | 5 (Weed-killing rate is 100%.) | 5 (Weed-killing rate is 100%.) | 5 (Weed-killing rate is 100%.) | 5 (Weed-killing rate is 100%.) | 5 (Weed-killing rate is 100%.) | 5 (Weed-killing rate is 100%.) | 5 (Weed-killing rate is 100%.) | 5 (Weed-killing rate is 100%.) | 5 (Weed-killing rate is 100%.) | 1 (Crop-killing rate is 1-39%.) | 0 (Crop-killing rate is 0-20% (No Phytotoxicity).) | 5 (Weed-killing rate is 100%.) | 5 (Weed-killing rate is 100%.) | 5 (Weed-killing rate is 100%.) | 5 (Weed-killing rate is 100%.) | 5 (Weed-killing rate is 100%.) | 5 (Weed-killing rate is 100%.) | 4 (Crop-killing rate is 90-99%.) | Phytotoxicity Wh [21]: 3 (Crop-killing rate is 70-89%.) |
| CCCNC(=O)c1nc2c(cc1C(=O)Nc1c(CC)ccc(Cl)c1CC)CCSC2 [compound 534] | 5 (Weed-killing rate is 100%.) | 5 (Weed-killing rate is 100%.) | 5 (Weed-killing rate is 100%.) | 5 (Weed-killing rate is 100%.) | 5 (Weed-killing rate is 100%.) | 5 (Weed-killing rate is 100%.) | 5 (Weed-killing rate is 100%.) | 5 (Weed-killing rate is 100%.) | 5 (Weed-killing rate is 100%.) | 5 (Weed-killing rate is 100%.) | 5 (Weed-killing rate is 100%.) | 3 (Crop-killing rate is 70-89%.) | 4 (Crop-killing rate is 90-99%.) | 5 (Weed-killing rate is 100%.) | 5 (Weed-killing rate is 100%.) | 5 (Weed-killing rate is 100%.) | 5 (Weed-killing rate is 100%.) | 5 (Weed-killing rate is 100%.) | 5 (Weed-killing rate is 100%.) | 4 (Crop-killing rate is 90-99%.) | Phytotoxicity Wh [21]: 4 (Crop-killing rate is 90-99%.) |
| CCCNC(=O)c1nc2ccoc2cc1C(=O)Nc1c(CC)ccc(Cl)c1CC [compound 847] | 5 (Weed-killing rate is 100%.) | 5 (Weed-killing rate is 100%.) | 5 (Weed-killing rate is 100%.) | 5 (Weed-killing rate is 100%.) | 5 (Weed-killing rate is 100%.) | 5 (Weed-killing rate is 100%.) | 5 (Weed-killing rate is 100%.) | 5 (Weed-killing rate is 100%.) | 5 (Weed-killing rate is 100%.) | 5 (Weed-killing rate is 100%.) | 5 (Weed-killing rate is 100%.) | 4 (Crop-killing rate is 90-99%.) | 5 (Crop-killing rate is 100%.) | 5 (Weed-killing rate is 100%.) | 5 (Weed-killing rate is 100%.) | 5 (Weed-killing rate is 100%.) | 5 (Weed-killing rate is 100%.) | 5 (Weed-killing rate is 100%.) | 5 (Weed-killing rate is 100%.) | 4 (Crop-killing rate is 90-99%.) | Phytotoxicity Wh [21]: 5 (Crop-killing rate is 100%.) |
